Among the data in BindingDB's records for patent US20250236609 (Deciphera Pharmaceuticals, 2025) are IC50 values, retold here.

pIC50: −log10 of the molar value. Bounds are passed on as bounds.

The test deals with Phosphatidylinositol 3-kinase catalytic subunit type 3 (Homo sapiens, UniProt Q8NEB9). As to the kind of experiment: Biochemical Assay for VPS34. The method, then: Activity of VPS34 kinase was determined using an ADP-Glo kinase activity assay (Promega Corp). Assays were conducted in 384-well plates (5 μL assay volume) using 25 nM VPS34 (ThermoFisher Scientific), […] PI:3PS Lipid Kinase Substrate (Promega Corp.), and 1 mM ATP in kinase buffer. Inhibition of VPS34 was measured by adding serial diluted test compound (final assay concentration of 0.1% DMSO) followed by a 1-hour incubation at 37° C. ADP-Glo reagent was then added […] followed by a 40 min incubation at rt. Kinase detection reagent was then added […] and followed by a 60 min incubation at rt. Luminescence was then detected. The RLU at each compound concentration of was converted to percent inhibition using controls (i.e., reaction with no test compound and reaction with a known inhibitor) and IC50 values were calculated by fitting a four-parameter sigmoidal curve to the data using GeneData Screener software.
Chain of Phosphatidylinositol 3-kinase catalytic subunit type 3 (Q8NEB9 whole entry): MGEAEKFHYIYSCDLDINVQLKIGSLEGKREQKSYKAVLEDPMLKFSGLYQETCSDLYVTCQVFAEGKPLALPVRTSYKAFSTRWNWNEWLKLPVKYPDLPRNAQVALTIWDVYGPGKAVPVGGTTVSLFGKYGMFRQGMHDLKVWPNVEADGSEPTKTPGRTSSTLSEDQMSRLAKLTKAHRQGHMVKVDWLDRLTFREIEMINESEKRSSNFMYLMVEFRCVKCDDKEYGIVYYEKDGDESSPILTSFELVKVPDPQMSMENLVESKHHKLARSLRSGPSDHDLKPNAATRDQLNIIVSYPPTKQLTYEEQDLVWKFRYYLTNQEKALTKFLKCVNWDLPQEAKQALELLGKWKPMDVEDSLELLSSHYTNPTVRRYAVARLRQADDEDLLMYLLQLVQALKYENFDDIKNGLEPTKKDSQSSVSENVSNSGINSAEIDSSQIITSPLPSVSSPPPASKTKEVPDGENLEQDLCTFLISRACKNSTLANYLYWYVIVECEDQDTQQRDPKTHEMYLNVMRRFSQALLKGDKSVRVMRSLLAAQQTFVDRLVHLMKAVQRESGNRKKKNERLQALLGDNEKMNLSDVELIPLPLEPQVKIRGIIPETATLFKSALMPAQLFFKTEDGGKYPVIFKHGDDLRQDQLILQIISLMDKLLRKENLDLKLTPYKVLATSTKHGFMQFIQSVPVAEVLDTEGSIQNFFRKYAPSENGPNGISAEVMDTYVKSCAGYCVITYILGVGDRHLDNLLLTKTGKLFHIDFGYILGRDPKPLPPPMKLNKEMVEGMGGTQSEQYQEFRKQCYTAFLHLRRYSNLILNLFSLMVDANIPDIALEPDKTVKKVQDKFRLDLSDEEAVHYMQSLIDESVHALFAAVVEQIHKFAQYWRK

The molecule `COC(=O)Nc1cc(-c2cc(-c3cnccc3C(F)(F)F)[nH]c(=O)c2)c(C)cn1` [US20250236609, Example 4] had a pIC50 greater than 7.00.
